Results published in publication PMC5320518, “Novel Liver-targeted conjugates of Glycogen Phosphorylase Inhibitor PSN-357 for the Treatment of Diabetes: Design, Synthesis, Pharmacokinetic and Pharmacological Evaluations” (Scientific Reports, 2017).
Several values for one entry are separate records, joined by “and”; a condition that tells them apart may be missing. Identical values can stand only once. Like-named read-outs stand apart in the source and are kept apart here.

Experiments:
skeletal muscle function = tested on: skeletal muscle function; design: method as in PMID 16046314, PMID 16731853; settings: prolonged (60 min) muscle contraction, perfused rat hindlimb model; cited from earlier work
[1] = Stability in simulated intestinal fluid (SIF); type: in vitro ADME; settings: for time within which degraded in SIF: SIF pH 6.79 with pancreatin, 2 μM, 37 °C
Description: (§1) All the conjugates were tested for their chemical and metabolic stability in multiple assays, including simulated gastric fluid (SGF), simulated interstinal fluid (SIF), mouse plasma, and mouse liver microsome (MLM).
(§2) For the stability in SGF (Fig. 8) and SIF (Fig. 9), the conjugates could be divided into three groups: (1) stable conjugates 2, 6 and 9. […] The two conjugates were degraded within 6 h and 1 h in SGF and SIF, respectively, with alomost no conjugates at the end of the 24 h incubation in both SGF and SIF; (3) complicated conjugates 3, 4, 5 and 8.
(§3) The simulated gastrointestinal fluids were prepared according to USP specifications. For SGF, NaCl (0.12 g) and pepsin (0.18 g, from porcine stomach mucosa) was dissolved in HCl (0.42 mL) and sufficient H2O was added to make 60 mL. The pH of the test solution was determined as 1.21 by pH meter. For the SIF, KH2PO4 (0.408 g) and pancreatin (0.6 g, from porcine pancreas) was dissolved in H2O (60 mL). The pH of the test solution was determined as 6.79 by pH meter. Each test compound was dissolved in DMSO and diluted to a final concentration of 2 μM in SIF and SGF. The final concentrations of DMSO and CH3CN in the incubation mixture were 0.2% and 0.45%. Aliquots of these solutions were pipetted into glass tubes, and placed in a 37 °C shaking water bath. Test samples at corresponding time point (1, 2, 6, 24 h) were removed at the end of incubation time and immediately mixed with 800 μL of cold acetonitrile containing 500 ng/mL tolbutamide (internal standard). Samples were subjected to centrifuge at 4000 rpm, 4 °C for 20 min. Aliquots 60 μL of supernatant was combined with 120 μL water for LC-MS/MS analysis.

[2] = molecular target: T1, rabbit muscle GPa (RMGPa) (Oryctolagus cuniculus, UniProt P00489); experiment: RMGPa inhibition assay (phosphate release from glucose-1-phosphate); type: biochemical; settings: mean ± S.D. of three determinations; NI means no inhibition
T1 sequence (P00489 2-843 limits assumed): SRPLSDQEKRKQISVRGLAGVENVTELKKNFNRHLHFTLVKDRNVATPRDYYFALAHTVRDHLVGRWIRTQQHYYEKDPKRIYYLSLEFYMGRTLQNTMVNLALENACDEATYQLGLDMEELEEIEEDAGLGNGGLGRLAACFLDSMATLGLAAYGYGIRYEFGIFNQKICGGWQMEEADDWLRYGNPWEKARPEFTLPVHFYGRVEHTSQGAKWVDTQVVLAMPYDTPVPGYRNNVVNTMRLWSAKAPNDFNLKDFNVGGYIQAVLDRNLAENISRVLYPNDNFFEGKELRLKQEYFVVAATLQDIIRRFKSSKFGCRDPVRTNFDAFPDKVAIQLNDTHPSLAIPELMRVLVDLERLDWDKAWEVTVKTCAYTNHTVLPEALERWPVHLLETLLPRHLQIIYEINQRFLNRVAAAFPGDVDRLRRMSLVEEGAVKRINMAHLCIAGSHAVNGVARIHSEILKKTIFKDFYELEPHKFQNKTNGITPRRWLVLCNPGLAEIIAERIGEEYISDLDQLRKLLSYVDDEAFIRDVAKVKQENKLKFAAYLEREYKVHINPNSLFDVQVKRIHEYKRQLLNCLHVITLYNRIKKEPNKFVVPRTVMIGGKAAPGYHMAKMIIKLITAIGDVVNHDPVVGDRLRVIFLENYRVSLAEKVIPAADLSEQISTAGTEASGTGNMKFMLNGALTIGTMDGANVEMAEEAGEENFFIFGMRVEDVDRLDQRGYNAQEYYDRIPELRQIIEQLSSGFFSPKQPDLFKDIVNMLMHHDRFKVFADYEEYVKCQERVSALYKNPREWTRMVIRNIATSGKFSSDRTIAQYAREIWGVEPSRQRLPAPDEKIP
Description: All the compounds were evaluated for their inhibitory activity against rabbit muscle GPa (RMGPa). The activity of RMGPa was measured through detecting the release of phosphate from glucose-1-phosphate in the direction of glycogen synthesis. CP-91149, a well-known allosteric GP inhibitor, which shares the same binding site with PSN-357, was used as the positive control and the results are summarized in Table 1[21]. […] This remarkable loss of activity was probably due to the direct steric interference by such bulky substituent of cholic acid group. […] The results is consistent with the SARs of PSN-357 that the hydroxyl of piperidine is not an essential group for the GP inhibitory activity that could be modified slightly.
The inhibitory activity of the test compounds against rabbit muscle glycogen phosphorylase a (GPa) was monitored using microplate reader (BIO-RAD) based on the published method. In brief, GPa activity was measured in the direction of glycogen synthesis by the release of phosphate from glucose-1-phosphate. Each test compound was dissolved in DMSO and diluted at different concentrations for IC50 determination. The enzyme was added into 100 μL of buffer containing 50 mM Hepes (pH = 7.2), 100 mM KCl, 2.5 mM MgCl2, 0.5 mM glucose-1-phosphate, 1 mg/mL glycogen and the test compound in 96-well microplates (Costar). After the addition of 150 μL of 1 M HCl containing 10 mg/mL ammonium molybdate and 0.38 mg/mL malachite green, reactions were run at 22 °C for 25 min, and then the phosphate absorbance was measured at 655 nm. The IC50 values were estimated by fitting the inhibition data to a dose-dependent curve using a logistic derivative equation.

[3] = Stability in simulated gastric fluid (SGF); type: in vitro ADME; settings: SGF pH 1.21 with pepsin, 2 μM, 37 °C; for stability in SGF (in words): 24 h incubation
Description: as §1, §2, §3

[4] = Stability in mouse liver microsomes (MLM); type: in vitro ADME; settings: for CLint scaled at 10 μM / half-life at 10 μM / microsomal CLint at 10 μM: C57BL/6, pH 7.4, n = 3
Description: Additionally, the compounds’ stability in microsome were evaluated by measuring the rate of compounds consumpation in MLM and the results are shown in Table 3.
The microsomal pellet was suspended in potassium phosphate buffer (100 mM, pH 7.4), 10 μM test compound or positive control (diclofenac) was added. Liver microsomes from C57BL/6 mice (BD Gentest) were pooled. The mixture of microsome solution and compound was incubated at 37 °C for about 10 min in the presence of a NADPH-regenerating system, consisting of 0.02 M DL-isocitric acid (trisodium salt), 0.1 mg/mL isocitrate dehydrogenase and 1 mM NADPH. The addition of ice-cold CH3CN (including 100 ng/mL tolbutamide as internal standard) terminated the reaction. The mixture was vortexed for approx (30 s), centrifuged (20 min, 4000 rpm) and the supernatant was collected and analysed by LC-MS/MS method.

[5] = Stability in mouse plasma; type: in vitro ADME; settings: 2 μM, 37 °C, 120-min test
Description: Frozen plasma from male C57 BL/6 mice was incubated for 5 min at 37 °C before the addition of the test compound. Then prepared 2 μM incubation sample, and aliquots of the incubation mixtures (100 μL) were taken at predetermined time points (10, 30, 60, 120 min) at 37 °C. After incubation, the mixtures was added 400 μL of 50% ACN/50% MeOH containing internal standard (IS, 200 ng/mL Tolbutamide and 20 ng/mL Buspirone) to each sample tube and then centrifuged at 13000 rpm for 8 min. Blank incubations in the absence of the test compound were also performed. The analyses of test compounds were performed by LC-MS/MS analysis.

isolated rat hepatocytes = experiment: Glycogenolysis inhibition in isolated rat hepatocytes; type: cell-based; settings: mean ± S.D. of three, NI means no inhibition
Description: (§4) To evaluate the effects of all compounds in cells, the glycogenolysis assays were established in both rat and human liver cells based on the published method. […] The inhibitory activities of the derivatives of PSN-357 (e.g. 25–28) were also explored. It is not surprising that the derivatives still retained micromolar inhibitory activities. Introduction of steric bulks to the hydroxyl group (e.g. 33, 40, 42, 48) led to a complete loss of activity. Data analysis indicated no clear SAR for the substitutents in the cell-based assays.
(§5) The inhibition of hepatic glycogenolysis was monitored by the measurement of liver glycogen, which was done quantitatively by the anthrone reagent (Sigma) colorimetric method based on the published method. Isolated rat hepatocytes or HepG2 cells (Sigma) were treated with the test compound or DMSO solvent (final concentration, 0.10%), followed by 60-min incubation with 0.3 nM glucagon (GGN). Assays were terminated by centrifugation, and cells were digested with 30% KOH followed by glycogen determination. The IC50 values were estimated by fitting the inhibition data to a dose-dependent curve using a logistic derivative equation.

HepG2 cells = experiment: Glycogenolysis inhibition in HepG2 cells; type: cell-based, human; settings: HepG2 cells, 60-min incubation with 0.3 nM glucagon, mean ± S.D. of three, NI means no inhibition, read-out: IC50 (glycogenolysis inhibition, HepG2 cells)
Description: as §4, §5

[6] = Rattus norvegicus, Hepatocyte, 1 h, read-out: IC50 (glycogenolysis inhibition, rat hepatocytes), isolated rat hepatocytes, 60-min incubation with 0.3 nM glucagon

Row | Compound | greater muscle fatigue than the control group (skeletal muscle function) | melting point | time within which degraded in SIF [1] | IC50 [2] | stability in SGF (in words) [3] | CLint scaled at 10 μM [4] | half-life at 10 μM [4] | microsomal CLint at 10 μM [4] | degradation in mouse plasma [5] | IC50 (RMGPa inhibition) [2] | fraction degraded during 24 h incubation in SIF [1] | IC50 (isolated rat hepatocytes; [6]) | IC50 (isolated rat hepatocytes; read-out: IC50 (glycogenolysis inhibition, rat hepatocytes), isolated rat hepatocytes, 60-min incubation with 0.3 nM glucagon) | metabolic stability in MLM (in words) [4] | IC50 (HepG2 cells) | IC50 (HepG2 cells; Homo sapiens, HepG2, 1 h) | time within which degraded in SGF [3]
1 | CP316819 | 35% |  |  |  |  |  |  |  |  |  |  |  |  |  |  |  | 
2 | C[C@H](CCC(=O)N[C@@H](CO)C(=O)OC1CCN(C(=O)[C@H](Cc2ccc(F)cc2)NC(=O)c2cc3cc(Cl)ncc3[nH]2)CC1)[C@H]1CC[C@H]2[C@@H]3[C@H](O)C[C@@H]4C[C@H](O)CC[C@]4(C)[C@H]3C[C@H](O)[C@]12C [Conjugate 5] |  | 175 to 177 °C | ≤ 1 h | 81.9 ± 14.4 µM | relatively stable | 135 mL/min/kg | 40.8 min | 34 µL/min/mg |  |  |  |  |  |  |  |  | 
3 | CC(C)[C@H](NC(=O)CC[C@@H](C)[C@H]1CC[C@H]2[C@@H]3[C@H](O)C[C@@H]4C[C@H](O)CC[C@]4(C)[C@H]3C[C@H](O)[C@]12C)C(=O)OC1CCN(C(=O)[C@H](Cc2ccc(F)cc2)NC(=O)c2cc3cc(Cl)ncc3[nH]2)CC1 [Conjugate 4] |  | 185 to 187 °C | ≤ 1 h |  | relatively stable | 150 mL/min/kg | 36.5 min | 38 µL/min/mg | approximately 4% | no activity |  |  |  |  |  |  | 
4 | C[C@H](CCC(=O)NCCNC(=O)c1ccc(/N=N/c2ccccc2CCC(=O)OC2CCN(C(=O)[C@H](Cc3ccc(F)cc3)NC(=O)c3cc4cc(Cl)ncc4[nH]3)CC2)cc1)[C@H]1CC[C@H]2[C@@H]3[C@H](O)C[C@@H]4C[C@H](O)CC[C@]4(C)[C@H]3C[C@H](O)[C@]12C [Conjugate 9] |  | 172 to 174 °C |  | 51.7 ± 4.1 µM | stable | 60.2 mL/min/kg | 91.2 min | 15.2 µL/min/mg |  |  | no more than 20% | 12.3 µM | 12.3 ± 3.93 µM | considerable metabolic stability | 6.41 ± 1.25 µM | 6.4 µM | 
5 | C[C@H](CCC(=O)N(C)CC(=O)OC1CCN(C(=O)[C@H](Cc2ccc(F)cc2)NC(=O)c2cc3cc(Cl)ncc3[nH]2)CC1)[C@H]1CC[C@H]2[C@@H]3[C@H](O)C[C@@H]4C[C@H](O)CC[C@]4(C)[C@H]3C[C@H](O)[C@]12C [Conjugate 2] |  | 183 to 185 °C |  | 26 ± 13.9 µM | stable | 220 mL/min/kg | 24.9 min | 55.6 µL/min/mg |  |  | no more than 20% | 845 ± 132 µM |  |  |  | 172 ± 18.2 µM | 
6 | C[C@H](CCC(=O)NCC(=O)OC1CCN(C(=O)[C@H](Cc2ccc(F)cc2)NC(=O)c2cc3cc(Cl)ncc3[nH]2)CC1)[C@H]1CC[C@H]2[C@@H]3[C@H](O)C[C@@H]4C[C@H](O)CC[C@]4(C)[C@H]3C[C@H](O)[C@]12C [Conjugate 1] |  |  | ≤ 1 h | 5.9 µM and 5.94 µM |  | 172 mL/min/kg | 31.9 min | 43.4 µL/min/mg |  |  |  | 41.1 ± 5.11 µM |  |  |  | 203 ± 3.39 µM | ≤ 6 h
7 | CC(CCC(=O)NC(Cc1ccccc1)C(=O)NC(CCCCN)C(=O)OC1CCN(C(=O)C(Cc2ccc(F)cc2)NC(=O)c2cc3cc(Cl)ncc3[nH]2)CC1)C1CCC2C3C(O)CC4CC(O)CCC4(C)C3CC(O)C12C (stereo not drawn) [Conjugate 8] |  |  | ≤ 1 h | 10.7 ± 5.6 µM | relatively stable | 64.2 mL/min/kg | 85.6 min | 16.2 µL/min/mg |  |  |  | 64.5 ± 4.4 µM |  | considerable metabolic stability |  | 36.8 ± 4.14 µM | 
